Measured values taken from patent publication US20250188123A1, “PROTEASE INHIBITORS” (Regents of the University of Minnesota, priority 2022, published 2025).
Where two headings read alike, the source gives them in different places. *1 amine or outer side, *2 acyl side, *3 side chain or, on linkers, in order; H or OH if unused. Where a SMILES comes first, the peptide text is derived from it. [ ]: non-standard residue; d: D form. The star is where a group is joined. ξ: configuration not given here. X1 = Cc1ccc2c(c1)CCN([*:1])[C@@H]2C(=O)[*:2]; ξ(indoline-2-carboxyl) = O=C(O)C1Cc2ccccc2N1; ξTHIQ1CO(6-Me) = Cc1ccc2c(c1)CCNC2C(=O)O; X3 = O=C([C@@H]1Cc2ccccc2N1[*:1])[*:2]; Aad = N[C@@H](CCCC(=O)O)C(=O)O; Thr(3ξ) = CC(O)[C@H](N)C(=O)O; Tle = CC(C)(C)[C@H](N)C(=O)O; Bn = c1ccc(C*)cc1

Experiments:
human caspase-3 = molecular target: T1, human caspase-3 (Homo sapiens, UniProt P42574); experiment: Fluorescent enzyme assay, Casp3 (AFC substrate AcDEVD-AFC); type: biochemical
T1 construct: made in house; host or cells: E. coli Rosetta 2 pLysS DE3
T1 sequence (P42574 29-277): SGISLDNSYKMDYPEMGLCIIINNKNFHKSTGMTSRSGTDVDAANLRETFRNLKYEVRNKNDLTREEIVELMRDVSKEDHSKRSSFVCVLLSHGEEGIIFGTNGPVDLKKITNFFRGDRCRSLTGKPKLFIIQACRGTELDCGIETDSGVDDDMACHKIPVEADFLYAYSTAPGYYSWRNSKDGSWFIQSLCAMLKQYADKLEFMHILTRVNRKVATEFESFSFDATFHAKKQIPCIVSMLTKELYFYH
Text: (§1) Human recombinant Casp1, 6, 7, and 9 were purchased from BioVision (Milpitas/CA, USA). AFC fluorogenic substrates and control peptides (AcYVAD-CHO, AcVDVAD-CHO, AcDEVD-CHO, AcVEID-CHO, and AcLEHD-CHO) were purchased from Bachem (Torrance/CA, USA). The pET23b vector encoding human caspase-3 was a gift of Dr. Michelle Arkin at University of California, San Francisco. Expression and purification of Casp3 was guided by previously described protocols (Denault J-B, Salvesen G S., Current Protocols in Protein Science, 2002, 30(1), 21.13. 1-21.13. 15). Briefly, the plasmid was transformed into E. coli Rosetta 2 pLyss DE3 cells that were cultured at 1 L scale in shake flasks. Five hours post induction with IPTG, cells were harvested through centrifugation (4000 g for 10 minutes at 4° C.), lysed by sonication, and centrifuged again for 30 minutes at 20000 g. Supernatant was resuspended in buffer (100 mM Tris pH 8.0, 500 mM NaCl). Purification was achieved by nickel-affinity chromatography followed by ion-exchange chromatography. Protein was diluted to 0.5 mg/mL and stored at −80° C. in 100 mM Tris, pH 8.0 supplemented with 10% glycerol. The typical yield for the expression, isolation, and purification was approximately 3 mg/L. The DNA encoding human caspase-2 (hCASP2, amino acids 170-452, free of the N-terminal caspase activation and recruitment domain) open reading frame (ORF) was amplified via polymerase chain reaction (PCR) from full-length hCASP2 cDNA (Origene, Rockville, MD; Cat #SC321316) using following primers: forward, 5′-[…]-3′; reverse, 5′-[…]-3′. The PCR fragment was then cloned into the pET23b vector (Millipore Sigma, Burlington, MA), and DNA sequence was verified by classic Sanger sequencing analyses. Site-directed mutageneses were carried out using a QuikChange II XL site-directed mutagenesis kit (Agilent Technologies, Santa Clara, CA; Cat #200522) according to the manufacturer's instruction. Expression of recombinant hCASP2 was induced using 150 μM isopropyl-β-D-thiogalactopyranoside (IPTG) (Promega, Madison, WI) in the BL21(DE3) E. coli strain (Millipore Sigma) at 16° C. for 14 hours while shaking at 250 rpm. Cells were then harvested via centrifugation at 6,000 g, 4° C. for 15 minutes, followed by lysis via sonication. Proteins were initially purified using HisPur Ni-NTA resin (Thermo Fisher Scientific, Waltham, MA) followed by metal chelating chromatography (5 mL HiTrap Chelating HP columns (GE Healthcare Life Sciences, Piscataway, NJ)). Further purification was carried out using anion exchange chromatography (5 mL HiTrap Q HP columns (GE Healthcare Life Sciences)) for hCASP2. Proteins were stored in 1× phosphate-buffered saline (pH 7.4) at 10 mg/mL (concentration determined using a BCA assay (Thermo Fisher Scientific)), −80° C. until further use.
(§2) KM values were determined experimentally to be the following: Casp1: 5.9 μM; Casp2: 37.1 μM; Casp3: 7.6 μM; Casp6: 14.5 μM; Casp7: 13.8 μM; Casp9: 149.1 μM. Enzymes were diluted in buffer: 100 mM MES (pH 6.5) for Casp2 and or 100 mM HEPES (pH 7.0) for all other caspases, plus 150 mM NaCl, 0.1% CHAPS, 1.5% sucrose, 10 mM DTT. Enzyme concentrations were 0.05 U/well for Casp1, 6, and 7; 0.5 U/well for Casp9, 20 nM/well for Casp2, and 2 nM/well for Casp3. Enzyme in buffer (19 μL) was added per well in a black 384-well Corning 4514 assay plate. Test compounds were serially diluted in dimethyl sulfoxide (DMSO) and plated in duplicate into a Corning 3656 transfer plate. Test compound was added to assay plates in 0.5 μL aliquots per well and mixed 10 times using a BiomekFX (Beckman Coulter). Compound and enzyme mixture was incubated at 37° C. for 5 minutes for aldehyde warheads and 45 minutes for cyano warheads. […]

human caspase-2 = molecular target: T2, human caspase-2 (Homo sapiens, UniProt P42575); experiment: Fluorescent enzyme assay, Casp2 (AFC substrate Z-VDVAD-AFC); type: biochemical; conditions: for Ki (Casp3) / Ki (Casp2): selectivity Casp2 over Casp3
T2 construct: inferred from pET23b, XhoI reverse primer without stop codon, Ni-NTA purification) (C); made in house; host or cells: E. coli BL21(DE3)
T2 sequence (P42575 170-452): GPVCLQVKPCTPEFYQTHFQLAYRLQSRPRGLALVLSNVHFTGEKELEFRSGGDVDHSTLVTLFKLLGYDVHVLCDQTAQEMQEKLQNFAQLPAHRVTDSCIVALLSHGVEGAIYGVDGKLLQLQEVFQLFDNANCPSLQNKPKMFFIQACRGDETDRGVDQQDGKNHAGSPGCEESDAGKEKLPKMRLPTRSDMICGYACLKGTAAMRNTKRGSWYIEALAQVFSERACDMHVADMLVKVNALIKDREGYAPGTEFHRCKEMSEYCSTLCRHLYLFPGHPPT
Text: as §1, §2

[1] = mean ± SEM of N independent experiments, each in duplicate or triplicate, read-out: pKi ± SEM Casp 3 (converted)
[2] = mean ± SEM of N independent experiments, each in duplicate or triplicate, read-out: pKi ± SEM Casp 2 (converted)

Row | Ki (human caspase-3; [1]) | Ki (human caspase-2; [2]) | Structure (SMILES) | Ki (human caspase-3) | Ki (human caspase-2) | Ki (Casp3) / Ki (Casp2) (human caspase-2)
1 |  |  | Cc1ccc2c(c1)CCN(C(=O)[C@@H](NC(=O)[C@H](CCCC(=O)O)NC(=O)C1Cc3ccccc3N1)C(C)C)[C@@H]2C(=O)N[C@H](C=O)CC(=O)O (stereo partly drawn) [Compound 2, (S)-6-(((S)-1-((S)-1-(((S)-1-carboxy-3-oxopropan-2-yl)carbamoyl)-6-methyl-3,4-dihydroisoquinolin-2(1H)-yl)-3-methyl-1-oxobutan-2-yl)amino)-5-((S)-indoline-2-carboxamido)-6-oxohexanoic acid hydrotrifluoroacetate] (H-[ξ(indoline-2-carboxyl)][Aad]V[X1]D-aldehyde) | > 31.6 µM | 0.0398 µM | 794
2 | > 100 µM | > 100 µM | Cc1ccc2c(c1)CCN(C(=O)CNC(=O)CNC(=O)[C@@H]1Cc3ccccc3N1)[C@@H]2C(=O)N[C@H](C=O)CC(=O)O [Compound 3, (S)-3-((S)-2-(((S)-indoline-2-carbonyl)glycylglycyl)-6-methyl-1,2,3,4-tetrahydroisoquinolin-1-carboxamido)-4-oxobutanoic acid hydrotrifluoroacetate] |  |  | 
3 | > 100 µM | > 100 µM | Cc1ccc2c(c1)CCN(C(=O)CCCCNC(=O)[C@@H]1Cc3ccccc3N1)[C@@H]2C(=O)N[C@H](C=O)CC(=O)O [Compound 4, (S)-3-((S)-2-(5-((S)-indoline-2-carboxamido)pentanoyl)-6-methyl-1,2,3,4-tetrahydroisoquinoline-1-carboxamido)-4-oxobutanoic acid hydrotrifluoroacetate] |  |  | 
4 |  |  | Cc1ccc2c(c1)CCN(C(=O)CNC(=O)[C@H](CCCC(=O)O)NC(=O)[C@@H]1Cc3ccccc3N1)[C@@H]2C(=O)N[C@H](C=O)CC(=O)O [Compound 5, (S)-6-((2-((S)-1-(((S)-1-carboxy-3-oxopropan-2-yl)carbamoyl)-6-methyl-3,4-dihydroisoquinolin-2(1H)-yl)-2-oxoethyl)amino)-5-((S)-indoline-2-carboxamido)-6-oxohexanoic acid hydrotrifluoroacetate] | 5.5 µM | 0.017 µM | 324
5 |  |  | Cc1ccc2c(c1)CCN(C(=O)[C@@H](NC(=O)[C@H](CCCC(=O)O)NC(=O)[C@@H]1Cc3ccccc3N1)C(C)OCc1ccccc1)C2C(=O)N[C@H](C=O)CC(=O)O (stereo partly drawn) [Compound 6, (S)-6-(((2S,3S)-3-(benzyloxy)-1-((S)-1-(((S)-1-carboxy-3-oxopropan-2-yl)carbamoyl)-6-methyl-3,4-dihydroisoquinolin-2(1H)-yl)-1-oxobutan-2-yl)amino)-5-((S)-indoline-2-carboxamido)-6-oxohexanoic acid hydrotrifluoroacetate] (H-[X3][Aad][Thr(3ξ)](Bn)[ξTHIQ1CO(6-Me)]D-aldehyde) | 33.1 µM | 2.29 µM | 14
6 | > 100 µM | 0.0295 µM | CC(=O)N1c2ccccc2C[C@H]1C(=O)N[C@@H](CCCC(=O)O)C(=O)NCC(=O)N1CCc2cc(C)ccc2[C@H]1C(=O)N[C@H](C=O)CC(=O)O [Compound 7, (S)-5-((S)-1-acetylindoline-2-carboxamido)-6-((2-((S)-1-(((S)-1-carboxy-3-oxopropan-2-yl)carbamoyl)-6-methyl-3,4-dihydroisoquinolin-2(1H)-yl)-2-oxoethyl)amino)-6-oxohexanoic acid] |  |  | 3388
7 | > 100 µM | 6.03 µM | CC(=O)N1c2ccccc2C[C@H]1C(=O)N[C@@H](CCCC(=O)O)C(=O)N[C@H](C(=O)N1CCc2cc(C)ccc2[C@H]1C(=O)N[C@H](C=O)CC(=O)O)[C@H](C)OCc1ccccc1 [Compound 8, (S)-5-((S)-1-acetylindoline-2-carboxamido)-6-(((2S,3S)-3-(benzyloxy)-1-((S)-1-(((S)-1-carboxy-3-oxopropan-2-yl)carbamoyl)-6-methyl-3,4-dihydroisoquinolin-2(1H)-yl)-1-oxobutan-2-yl)amino)-6-oxohexanoic acid] |  |  | 17
8 | > 100 µM | 0.38 µM | CC(=O)N1c2ccccc2C[C@H]1C(=O)N[C@@H](CCCC(=O)O)C(=O)N[C@H](C(=O)N1CCc2cc(C)ccc2[C@H]1C(=O)N[C@H](C=O)CC(=O)O)C(C)C [Compound 9, (S)-5-((S)-1-acetylindoline-2-carboxamido)-6-(((S)-1-((S)-1-(((S)-1-carboxy-3-oxopropan-2-yl)carbamoyl)-6-methyl-3,4-dihydroisoquinolin-2(1H)-yl)-3-methyl-1-oxobutan-2-yl)amino)-6-oxohexanoic acid] |  |  | 263
9 | > 100 µM | 2.14 µM | CC(=O)N1c2ccccc2C[C@H]1C(=O)N[C@@H](CCCC(=O)O)C(=O)N[C@H](C(=O)N1CCc2cc(C)ccc2[C@H]1C(=O)N[C@H](C=O)CC(=O)O)C(C)(C)C [Compound 10, (S)-5-((S)-1-acetylindoline-2-carboxamido)-6-(((S)-1-((S)-1-(((S)-1-carboxy-3-oxopropan-2-yl)carbamoyl)-6-methyl-3,4-dihydroisoquinolin-2(1H)-yl)-3,3-dimethyl-1-oxobutan-2-yl)amino)-6-oxohexanoic acid] |  |  | 47
10 |  |  | Cc1ccc2c(c1)CCN(C(=O)[C@@H](NC(=O)[C@H](CCCC(=O)O)NC(=O)[C@@H]1Cc3ccccc3N1)C(C)(C)C)C2C(=O)N[C@H](C=O)CC(=O)O (stereo partly drawn) [Compound 11, (S)-6-(((S)-1-((S)-1-(((S)-1-carboxy-3-oxopropan-2-yl)carbamoyl)-6-methyl-3,4-dihydroisoquinolin-2(1H)-yl)-3,3-dimethyl-1-oxobutan-2-yl)amino)-5-((S)-indoline-2-carboxamido)-6-oxohexanoic acid hydrotrifluoroacetate] (H-[X3][Aad][Tle][ξTHIQ1CO(6-Me)]D-aldehyde) | > 100 µM | 4.17 µM | 24
11 |  |  | Cc1ccc2c(c1)CCN(C(=O)[C@@H](NC(=O)[C@H](CCCC(=O)O)NC(=O)[C@@H]1Nc3ccc(F)cc3C1(C)C)C(C)C)[C@@H]2C(=O)N[C@H](C=O)CC(=O)O [Compound 12, (S)-6-(((S)-1-((S)-1-(((S)-1-carboxy-3-oxopropan-2-yl)carbamoyl)-6-methyl-3,4-dihydroisoquinolin-2(1H)-yl)-3-methyl-1-oxobutan-2-yl)amino)-5-((R)-5-fluoro-3,3-dimethylindoline-2-carboxamido)-6-oxohexanoic acid hydrotrifluoroacetate] | > 100 µM | 4.17 µM | 24
